Laboratory results from ChEMBL document CHEMBL3526141, “Characterization of human liver enzymes involved in the biotransformation of boceprevir, a hepatitis C virus protease inhibitor” (Drug Metab Dispos, 2011).

Key:
[1] = tested on: Liver cytosol; test: Drug metabolism in human liver cytosol treated with 20 uM [14C]boceprevir assessed as quercetin-mediated inhibition of metabolite formation by LC-MS/MS/FSA method; assay type: ADME, tissue-based
[2] = target: T1, Aldo-keto reductase family 1 member C3 (Homo sapiens, UniProt P42330); test: Drug metabolism in human recombinant […] HEK293 cells treated with 20 uM boceprevir assessed as 1 mM BNPP-mediated inhibition of AKR1C3-mediated metabolite formation after 120 mins in presence of NADPH by LC-MS/MS/FSA method; assay type: ADME, cell-based; design: interact cpd dose 1 mM; conditions: hek293, 2 h
T1 sequence (P42330 whole entry): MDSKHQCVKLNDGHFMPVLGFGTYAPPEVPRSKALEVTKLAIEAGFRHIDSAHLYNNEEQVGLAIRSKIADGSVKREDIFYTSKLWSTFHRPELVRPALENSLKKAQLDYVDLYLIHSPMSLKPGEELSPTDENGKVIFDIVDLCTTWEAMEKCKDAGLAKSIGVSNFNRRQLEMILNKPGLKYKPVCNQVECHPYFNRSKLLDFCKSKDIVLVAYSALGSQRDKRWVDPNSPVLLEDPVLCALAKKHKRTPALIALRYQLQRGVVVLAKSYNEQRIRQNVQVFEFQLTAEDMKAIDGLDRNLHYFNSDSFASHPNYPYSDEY

[3] = tested on: Liver cytosol; test: Drug metabolism in human liver cytosol treated with 20 uM [14C]SCH 534128 assessed as 100 uM diazepam-mediated inhibition of metabolite formation LC-MS/MS/FSA method; assay type: ADME, tissue-based; design: interact cpd dose 100 uM
[4] = target: T2, Aldo-keto reductase family 1 member C2 (Homo sapiens, UniProt P52895); test: Drug metabolism in human recombinant AKR1C2 expressing HEK293 cells treated with 20 uM boceprevir assessed as 1 mM BNPP-mediated inhibition of AKR1C2-mediated metabolite formation after 120 mins in presence of NADPH by LC-MS/MS/FSA method; assay type: ADME, cell-based; design: interact cpd dose 1 mM; conditions: hek293, 2 h
T2 sequence (P52895 whole entry): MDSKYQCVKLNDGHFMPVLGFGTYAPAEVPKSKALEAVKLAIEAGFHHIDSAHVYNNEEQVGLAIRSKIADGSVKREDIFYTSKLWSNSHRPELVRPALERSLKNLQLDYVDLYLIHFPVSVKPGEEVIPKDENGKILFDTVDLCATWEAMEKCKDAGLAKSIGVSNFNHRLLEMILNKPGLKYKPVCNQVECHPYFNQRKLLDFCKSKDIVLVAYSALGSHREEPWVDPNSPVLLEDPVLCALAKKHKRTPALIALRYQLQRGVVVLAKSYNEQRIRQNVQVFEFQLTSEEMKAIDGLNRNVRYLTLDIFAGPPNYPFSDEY

[5] = (§1) Drug metabolism in human liver S9 fraction at 20 uM assessed as (1R,2S,5S)-N-((2S,3R)-4-amino-1-cyclobutyl-3-hydroxy-4-oxobutan-2-yl)-3-((S)-2-(3-tert-butylureido)-3,3-dimethylbutanoyl)-6,6-dimethyl-3-azabicyclo[3.1.0]hexane-2-carboxamide formation in presence of flufenamic acid by LC-MS/MS/FSA method; assay type: ADME, subcellular; conditions: s9, 20 µM
[6] = as §1, with “phenolphthalein” for “flufenamic acid”; assay type: ADME, subcellular; conditions: s9, 20 µM
[7] = tested on: Liver cytosol; test: (§2) Drug metabolism in human liver cytosol at 20 uM assessed as (1R,2S,5S)-N-((2S,3R)-4-amino-1-cyclobutyl-3-hydroxy-4-oxobutan-2-yl)-3-((S)-2-(3-tert-butylureido)-3,3-dimethylbutanoyl)-6,6-dimethyl-3-azabicyclo[3.1.0]hexane-2-carboxamide formation in presence of flufenamic acid by LC-MS/MS/FSA method; assay type: ADME
[8] = tested on: Liver cytosol; test: as §2, with “formation at 20 uM after 60 mins” for “formation”, “AKR inhibitor ibuprofen” for “flufenamic acid”; assay type: ADME; conditions: 1 h
[9] = Drug excretion in human urine; assay type: ADME; design: dosed compound name [14C]boceprevir
[10] = Drug excretion in human feces assessed as carbonyl reduction pathway related metabolites level; assay type: ADME; design: dosed compound name [14C]boceprevir
[11] = target: T3, Aldo-keto reductase family 1 member C4 (Homo sapiens, UniProt P17516); test: Activity of human recombinant AKR1C4 expressed in HEK293 cells assessed as (1R,2S,5S)-N-((2S,3R)-4-amino-1-cyclobutyl-3-hydroxy-4-oxobutan-2-yl)-3-((S)-2-(3-tert-butylureido)-3,3-dimethylbutanoyl)-6,6-dimethyl-3-azabicyclo[3.1.0]hexane-2-carboxamide formation per mg protein after 120 mins in presence of NADPH by LC-MS/MS/FSA method; assay type: ADME, cell-based; conditions: hek293, 2 h
T3 sequence (P17516 whole entry): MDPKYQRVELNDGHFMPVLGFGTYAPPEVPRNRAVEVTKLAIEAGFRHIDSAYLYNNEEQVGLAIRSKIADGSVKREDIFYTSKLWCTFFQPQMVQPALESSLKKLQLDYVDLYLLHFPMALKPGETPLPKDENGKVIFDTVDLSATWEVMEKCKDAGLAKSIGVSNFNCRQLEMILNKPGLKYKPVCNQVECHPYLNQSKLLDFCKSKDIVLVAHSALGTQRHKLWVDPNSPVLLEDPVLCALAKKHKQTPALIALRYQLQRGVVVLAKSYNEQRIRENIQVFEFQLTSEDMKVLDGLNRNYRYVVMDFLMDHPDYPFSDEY

[12] = tested on: Liver cytosol; test: Drug metabolism in human liver cytosol at 20 uM assessed as (1R,2S,5S)-N-((2S,3R)-4-amino-1-cyclobutyl-3-hydroxy-4-oxobutan-2-yl)-3-((S)-2-(3-tert-butylureido)-3,3-dimethylbutanoyl)-6,6-dimethyl-3-azabicyclo[3.1.0]hexane-2-carboxamide formation in presence of allopurinol by LC-MS/MS/FSA method; assay type: ADME
[13] = Drug metabolism in human liver S9 fraction at 20 uM assessed as (1R,2S,5S)-N-((2S,3R)-4-amino-1-cyclobutyl-3-hydroxy-4-oxobutan-2-yl)-3-((S)-2-(3-tert-butylureido)-3,3-dimethylbutanoyl)-6,6-dimethyl-3-azabicyclo[3.1.0]hexane-2-carboxamide formation in presence of menadione by LC-MS/MS/FSA method; assay type: ADME, subcellular; conditions: s9, 20 µM
[14] = tested on: Liver cytosol; test: Drug metabolism in human liver cytosol at 20 uM assessed as (1R,2S,5S)-N-((2S,3R)-4-amino-1-cyclobutyl-3-hydroxy-4-oxobutan-2-yl)-3-((S)-2-(3-tert-butylureido)-3,3-dimethylbutanoyl)-6,6-dimethyl-3-azabicyclo[3.1.0]hexane-2-carboxamide formation in presence of phenolphthalein by LC-MS/MS/FSA method; assay type: ADME
[15] = tested on: Liver cytosol; test: Drug metabolism in human liver cytosol assessed as (1R,2S,5S)-N-((2R,3R)-4-amino-1-cyclobutyl-3-hydroxy-4-oxobutan-2-yl)-3-((S)-2-(3-tert-butylureido)-3,3-dimethylbutanoyl)-6,6-dimethyl-3-azabicyclo[3.1.0]hexane-2-carboxamide formation after 60 mins by LC-MS/MS/FSA method; assay type: ADME, tissue-based; conditions: 1 h

With CC(C)(C)NC(=O)N[C@H](C(=O)N1C[C@H]2[C@@H]([C@H]1C(=O)N[C@@H](CC1CCC1)[C@@H](O)C(N)=O)C2(C)C)C(C)(C)C the “inhibition (INH)” value [1] was < 30%, the “inhibition (INH)” value [2] was 69% and the “inhibition (INH)” value [3] was 72.9%. For the same compound, the “inhibition (INH)” value [4] was 82%.

For CC(C)(C)NC(=O)N[C@H](C(=O)N1C[C@H]2[C@@H]([C@H]1C(=O)NC(CC1CCC1)C(=O)C(N)=O)C2(C)C)C(C)(C)C (stereo not given in full) [BOCEPREVIR], the Compound recovery [5] was “metabolite_not_detected”, the Compound recovery [6] was “metabolite_not_detected” and the Compound recovery [7] was “metabolite_not_detected”. For the same compound, the Compound recovery [8] was “metabolite_not_detected”, the Radiolabel recovery [9] was 9.3% and the Radiolabel recovery [10] was 22%. For the same compound, the Compound recovery [11] was “metabolite_not_detected”, the Compound recovery [12] was “metabolite_detected” and the Compound recovery [13] was “metabolite_not_detected”. For the same compound, the Compound recovery [14] was “metabolite_not_detected”.

Compound CC(C)(C)NC(=O)N[C@H](C(=O)N1C[C@H]2[C@@H]([C@H]1C(=O)N[C@H](CC1CCC1)C(=O)C(N)=O)C2(C)C)C(C)(C)C has a Km [15] of 27.4 µM.
